# Reference: patent US9567342B2, “Certain protein kinase inhibitors” (SHANGHAI FOCHON PHARMACEUTICAL CO., LTD., priority 2012, dated 2017)
# How the values were obtained:
# SU-DHL-1 cells = assay: Inhibition activity of cell proliferation (CCK-8 assay); type: cell-based; details: Homo sapiens, 72 h exposure
# Method: SU-DHL-1 cells were seeded in 96-well tissue culture plates. On the next day, cells were exposed to various concentrations of compounds and further cultured for 72 h. Cell proliferation was then determined using Cell Counting Kit-8 [(CCK-8), Dojindo]assay. Briefly, add 10 μL of the CCK-8 solution to each well of the plate. Incubate the plate for 1-4 hours in the incubator. Measure the absorbance at 450 nm using a multi-well spectrophotometer (SpectraMAX 190, Molecular Devices). The inhibition rate (%) was calculated using the following equation: [1−(A450 Compound/A450 Control)]×100%. IC50 values were calculated according to inhibition curve by four-parameter fit.
# NCI-H2228 cells = assay: In vivo antitumor activity, NCI-H2228 cells implanted sc in nude mice; details: QD, oral, NCI-H2228 xenograft
# Method: Male nude mice (6-week old) were housed in a specific pathogen-free room with a 12 h light/dark schedule at 20-25° C. and were fed an autoclaved chow diet and water ad libitum.
# NCI-H2228 cells at a density of […] in 200 μL were first implanted sc into the right flank of each nude mice and then allowed to grow to above 230 mm^3, the mice were randomly assigned into control and treatment groups (n=6 per group for compound treated group, n=12 per group for vehicle group). Vehicle control group were given vehicle alone, and treatment groups were received Compound 4, LDK378 or Crizotinib as indicated doses via oral administration once daily for 21 days. The mice tumor volumes in each group were measured twice per week.
smiles,measurement,setting,value
C[C@@H](Oc1cc(-c2cnn(C3CCNCC3)c2)cnc1N)c1c(Cl)ccc(F)c1Cl [Crizotinib],IC50,SU-DHL-1 cells,75.4 to 154 nM
same,Mean relative tumor volume (RTV) ± S.E.,"NCI-H2228 cells; D0, 50 mg/kg",100.00
same,Mean relative tumor volume (RTV) ± S.E.,"NCI-H2228 cells; D4, 50 mg/kg",67.71±
same,Mean relative tumor volume (RTV) ± S.E.,"NCI-H2228 cells; D7, 50 mg/kg",54.10
same,Mean relative tumor volume (RTV) ± S.E.,"NCI-H2228 cells; D11, 50 mg/kg",44.71
same,Mean relative tumor volume (RTV) ± S.E.,"NCI-H2228 cells; D14, 50 mg/kg",42.69
same,Mean relative tumor volume (RTV) ± S.E.,"NCI-H2228 cells; D18, 50 mg/kg",41.44
same,Mean relative tumor volume (RTV) ± S.E.,"NCI-H2228 cells; D21, 50 mg/kg",43.69
Cc1cc(Nc2nc(Nc3ccccc3S(=O)(=O)C(C)C)c3c(C)n[nH]c3n2)c2c(c1C1CCN(C)CC1)C[C@@H](C)O2 [Example 4],IC50,SU-DHL-1 cells,10.9 nM
same,Mean relative tumor volume (RTV) ± S.E.,"NCI-H2228 cells; D0, 10 mg/kg",100.00
same,Mean relative tumor volume (RTV) ± S.E.,"NCI-H2228 cells; D4, 10 mg/kg",52.92
same,Mean relative tumor volume (RTV) ± S.E.,"NCI-H2228 cells; D7, 10 mg/kg",36.55
same,Mean relative tumor volume (RTV) ± S.E.,"NCI-H2228 cells; D11, 10 mg/kg",29.20
same,Mean relative tumor volume (RTV) ± S.E.,"NCI-H2228 cells; D14, 10 mg/kg",18.82
same,Mean relative tumor volume (RTV) ± S.E.,"NCI-H2228 cells; D18, 10 mg/kg",9.48
same,Mean relative tumor volume (RTV) ± S.E.,"NCI-H2228 cells; D21, 10 mg/kg",5.28
"Cc1cc(Nc2ncc(Cl)c(Nc3ccccc3S(=O)(=O)C(C)C)n2)c2c(c1C1CCN(C(=O)CN)CC1)C[C@H](C)O2 [Example 42, (S)-2-amino-1-(4-(7-((5-chloro-4-((2-(isopropylsulfonyl)phenyl)amino)pyrimidin-2-yl)amino)-2,5-dimethyl-2,3-dihydrobenzofuran-4-yl)piperidin-1-yl)ethanone]",IC50,SU-DHL-1 cells,54.6 nM
"Cc1cc(Nc2ncc(Cl)c(Nc3ccccc3S(=O)(=O)C(C)C)n2)c2c(c1C1CCN(C(N)=O)CC1)C[C@H](C)O2 [Example 43, (S)-4-(7-((5-chloro-4-((2-(isopropylsulfonyl)phenyl)amino)pyrimidin-2-yl)amino)-2,5-dimethyl-2,3-dihydrobenzofuran-4-yl)piperidine-1-carboxamide]",IC50,SU-DHL-1 cells,107 nM
"CNCC(=O)N1CCC(c2c(C)cc(Nc3ncc(Cl)c(Nc4ccccc4S(=O)(=O)C(C)C)n3)c3c2C[C@H](C)O3)CC1 [Example 44, (S)-1-(4-(7-((5-chloro-4-((2-(isopropylsulfonyl)phenyl)amino)pyrimidin-2-yl)amino)-2,5-dimethyl-2,3-dihydrobenzofuran-4-yl)piperidin-1-yl)-2-(methylamino)ethanone]",IC50,SU-DHL-1 cells,264 nM
"Cc1cc(Nc2ncc(Cl)c(Nc3ccccc3S(=O)(=O)C(C)C)n2)c2c(c1C1CCN(C(=O)CN(C)C)CC1)C[C@H](C)O2 [Example 45, (S)-1-(4-(7-((5-chloro-4-((2-(isopropylsulfonyl)phenyl)amino)pyrimidin-2-yl)amino)-2,5-dimethyl-2,3-dihydrobenzofuran-4-yl)piperidin-1-yl)-2-(dimethylamino)ethanone]",IC50,SU-DHL-1 cells,39.5 nM
"Cc1cc(Nc2ncc(Cl)c(Nc3ccccc3S(=O)(=O)C(C)C)n2)c2c(c1C(=O)N1CCNCC1)C[C@H](C)O2 [Example 46, (S)-(7-((5-chloro-4-((2-(isopropylsulfonyl)phenyl)amino)pyrimidin-2-yl)amino)-2,5-dimethyl-2,3-dihydrobenzofuran-4-yl)(piperazin-1-yl)methanone]",IC50,SU-DHL-1 cells,114 nM
"Cc1cc(Nc2ncc(Cl)c(Nc3ccccc3S(=O)(=O)C(C)C)n2)c2c(c1C(=O)N1CCN(C)CC1)C[C@H](C)O2 [Example 47, (S)-(7-((5-chloro-4-((2-(isopropylsulfonyl)phenyl)amino)pyrimidin-2-yl)amino)-2,5-dimethyl-2,3-dihydrobenzofuran-4-yl)(4-methylpiperazin-1-yl)methanone]",IC50,SU-DHL-1 cells,117 nM
"Cc1cc(Nc2ncc(Cl)c(Nc3ccccc3S(=O)(=O)C(C)C)n2)c2c(c1C(=O)N1CCOCC1)C[C@H](C)O2 [Example 48, (S)-(7-((5-chloro-4-((2-(isopropylsulfonyl)phenyl)amino)pyrimidin-2-yl)amino)-2,5-dimethyl-2,3-dihydrobenzofuran-4-yl)(morpholino)methanone]",IC50,SU-DHL-1 cells,219 nM
"CCC(=O)N1CCC(c2c(C)cc(Nc3ncc(Cl)c(Nc4ccccc4S(=O)(=O)C(C)C)n3)c3c2C[C@@H](C)O3)CC1 [Example 49, (R)-1-(4-(7-((5-chloro-4-((2-(isopropylsulfonyl)phenyl)amino)pyrimidin-2-yl)amino)-2,5-dimethyl-2,3-dihydrobenzofuran-4-yl)piperidin-1-yl)propan-1-one]",IC50,SU-DHL-1 cells,97.8 nM
"Cc1cc(Nc2ncc(Cl)c(Nc3ccccc3S(=O)(=O)C(C)C)n2)c2c(c1C1CCN(C(=O)C(C)C)CC1)C[C@@H](C)O2 [Example 50, (R)-1-(4-(7-((5-chloro-4-((2-(isopropylsulfonyl)phenyl)amino)pyrimidin-2-yl)amino)-2,5-dimethyl-2,3-dihydrobenzofuran-4-yl)piperidin-1-yl)-2-methylpropan-1-one]",IC50,SU-DHL-1 cells,81.2 nM
"Cc1cc(Nc2ncc(Cl)c(Nc3ccccc3S(=O)(=O)C(C)C)n2)c2c(c1C1CCN(C(=O)C3CC3)CC1)C[C@@H](C)O2 [Example 51, (R)-(4-(7-((5-chloro-4-((2-(isopropylsulfonyl)phenyl)amino)pyrimidin-2-yl)amino)-2,5-dimethyl-2,3-dihydrobenzofuran-4-yl)piperidin-1-yl)(cyclopropyl)methanone]",IC50,SU-DHL-1 cells,52.4 nM
"CCS(=O)(=O)N1CCC(c2c(C)cc(Nc3ncc(Cl)c(Nc4ccccc4S(=O)(=O)C(C)C)n3)c3c2C[C@@H](C)O3)CC1 [Example 52, (R)-5-chloro-N-2-(4-(1-(ethylsulfonyl)piperidin-4-yl)-2,5-dimethyl-2,3-dihydrobenzofuran-7-yl)-N-4-(2-(isopropylsulfonyl)phenyl)pyrimidine-2,4-diamine]",IC50,SU-DHL-1 cells,59 nM
Cc1cc(Nc2ncc(Cl)c(Nc3ccccc3S(=O)(=O)C(C)C)n2)c2c(c1C1CCN(S(=O)(=O)C(C)C)CC1)C[C@@H](C)O2 [Example 53],IC50,SU-DHL-1 cells,110 nM
"Cc1cc(Nc2ncc(Cl)c(Nc3ccccc3S(=O)(=O)C(C)C)n2)c2c(c1C1CCN(S(=O)(=O)C3CC3)CC1)C[C@@H](C)O2 [Example 54, (R)-5-chloro-N-2-(4-(1-(cyclopropylsulfonyl)piperidin-4-yl)-2,5-dimethyl-2,3-dihdyrobenzofuran-7-yl)-N-4-(2-(isopropylsulfonyl)phenyl)pyrimidine-2,4-diamine]",IC50,SU-DHL-1 cells,333 nM
"CO[C@H](C)C(=O)N1CCC(c2c(C)cc(Nc3ncc(Cl)c(Nc4ccccc4S(=O)(=O)C(C)C)n3)c3c2C[C@H](C)O3)CC1 [Example 55, (R)-1-(4-((S)-7-((5-chloro-4-((2-(isopropylsulfonyl)phenyl)amino)pyrimidin-2-yl)amino)-2,5-dimethyl-2,3-dihydrobenzofuran-4-yl)piperidin-1-yl)-2-methoxypropan-1-one]",IC50,SU-DHL-1 cells,35.7 nM
"CO[C@H](C)C(=O)N1CCC(c2c(C)cc(Nc3ncc(Cl)c(Nc4ccccc4S(=O)(=O)C(C)C)n3)c3c2C[C@@H](C)O3)CC1 [Example 56, (R)-1-(4-((R)-7-((5-chloro-4-((2-(isopropylsulfonyl)phenyl)amino)pyrimidin-2-yl)amino)-2,5-dimethyl-2,3-dihydrobenzofuran-4-yl)piperidin-1-yl)-2-methoxypropan-1-one]",IC50,SU-DHL-1 cells,26.3 nM
"CO[C@@H](C)C(=O)N1CCC(c2c(C)cc(Nc3ncc(Cl)c(Nc4ccccc4S(=O)(=O)C(C)C)n3)c3c2C[C@@H](C)O3)CC1 [Example 57, (S)-1-(4-((R)-7-((5-chloro-4-((2-(isopropylsulfonyl)phenyl)amino)pyrimidin-2-yl)amino)-2,5-dimethyl-2,3-dihydrobenzofuran-4-yl)piperidin-1-yl)-2-methoxypropan-1-one]",IC50,SU-DHL-1 cells,32.8 nM
"CO[C@@H](C)C(=O)N1CCC(c2c(C)cc(Nc3ncc(Cl)c(Nc4ccccc4S(=O)(=O)C(C)C)n3)c3c2C[C@H](C)O3)CC1 [Example 58, (S)-1-(4-((S)-7-((5-chloro-4-((2-(isopropylsulfonyl)phenyl)amino)pyrimidin-2-yl)amino)-2,5-dimethyl-2,3-dihydrobenzofuran-4-yl)piperidin-1-yl)-2-methoxypropan-1-one]",IC50,SU-DHL-1 cells,141 nM
Cc1cc(Nc2ncc(Cl)c(Nc3ccccc3S(=O)(=O)C(C)C)n2)c(OC(C)C)cc1C1CCNCC1 [LDK378],IC50,SU-DHL-1 cells,94.6 to 339 nM
same,Mean relative tumor volume (RTV) ± S.E.,"NCI-H2228 cells; D0, 20 mg/kg",100.00
same,Mean relative tumor volume (RTV) ± S.E.,"NCI-H2228 cells; D4, 20 mg/kg",71.66
same,Mean relative tumor volume (RTV) ± S.E.,"NCI-H2228 cells; D7, 20 mg/kg",56.79
same,Mean relative tumor volume (RTV) ± S.E.,"NCI-H2228 cells; D11, 20 mg/kg",49.09
same,Mean relative tumor volume (RTV) ± S.E.,"NCI-H2228 cells; D14, 20 mg/kg",48.58
same,Mean relative tumor volume (RTV) ± S.E.,"NCI-H2228 cells; D18, 20 mg/kg",35.67
same,Mean relative tumor volume (RTV) ± S.E.,"NCI-H2228 cells; D21, 20 mg/kg",31.44
